Assay results reported in PMC11466185, “Mechanisms and efficacy of small molecule latency-promoting agents to inhibit HIV reactivation ex vivo” (JCI Insight, 2024).
Several values for one entry are separate records, joined by “and”; a condition that tells them apart may be missing. Equal entries are not always repeated. Where two headings read alike, the source gives them in different places.

How the values were obtained:
[1] = test system: PBMCs; assay: Cell viability by trypan blue staining after 24 hours; type: cell-based, human; parameters: key to Viability (dose-response): % of activated DMSO control viability; settings: for Viability (dose-response): 1 participant per drug, in % (unit assumed)
In short: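 PBMCs from ART-suppressed donors at 6 × 10^6 cells/well were activated with CD3/28 beads and cultured with antiretrovirals plus drug in DMSO. Viability counted by trypan blue after 24 hours. Values were normalized to the activated DMSO control.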

[2] = test system: HIV transcripts (TAR, LLTR, Pol, PolyA, TatRev); assay: Latency reversal assay: cell-associated HIV transcripts (RT-ddPCR) 24 hours after anti-CD3/CD28 activation of PBMCs from ART-suppressed PWH; type: cell-based; parameters: key to TatRev: % of activated DMSO control, normalized to 1 μg total RNA; settings: for HIV transcriptional completion, ratio PolyA/LLTR: Figure 3C; for Pol HIV transcripts (DMSO αCD3/28 = 100) / PolyA HIV transcripts (DMSO αCD3/28 = 100) / TatRev HIV transcripts (DMSO αCD3/28 = 100): αCD3/28-activated, ruxolitinib 4μM, triptolide 25-50nM, alvocidib 40nM, dinaciclib 8nM, AZD4573 8nM, quercetin 5μM, pladienolide B 10nM, isoginkgetin 25μM, herboxidiene 5nM, KRIBB11 2.5μM, tanespimycin 5μM, mithramycin A 25nM; for PolyA/LLTR / TatRev/PolyA / LLTR/TAR: DMSO+CD3/28 = 1, Fig 3B, C and D; for PolyA / TatRev: DMSO+αCD3/28 = 100, Fig 3A
In short: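 PBMCs from ART-suppressed people with HIV (6 × 10^6 cells/well) treated with drug in DMSO, activated with anti-CD3/CD28 beads with antiretrovirals, harvested after 24 hours. TAR, LLTR, Pol, PolyA and TatRev transcripts measured by RT-ddPCR, normalized to 1 μg total RNA, expressed as % of activated DMSO control.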

[3] = test system: PBMCs; type: cell-based, human; settings: 6 days after αCD3/28 activation, each row one participant
Protocol: Next, we evaluated the ability of the candidate LPAs to sustain the inhibitory effects during a prolonged ex vivo culture. To this end, PBMCs were cultured in the presence of individual drugs in DMSO or in DMSO alone as control, activated (anti-CD3/CD28), and harvested after 6 days. […] However, we decided to test the drug on day 6 because extra cells were available from some study participants.
For quantification of cell-associated HIV transcripts, PBMCs were harvested either after 24 hours or after 6 days. The cell viabilities were measured by trypan blue staining; then the cells were pelleted by centrifuging at 300g for 6 minutes and stored at –80°C. For quantification of virion-associated HIV RNA, cell culture supernatant was collected from 6 × 10^6 PBMCs that were treated and activated for 6 days as described above. Residual cells and cellular debris were subsequently removed from the supernatant by differential centrifugation (300g for 6 minutes, then 20,000g for 10 minutes), and the supernatant was stored at –80°C.
A) After six days, the viability was measured by trypan blue staining and then normalized to the levels of the activated DMSO (% of activated DMSO). Bars indicate medians and different colors indicate individual study participants. B-F) Each drug was tested in PBMCs from at least six ART-suppressed study participants (except for KRIBB11, n=5) and the PBMCs were aliquoted into wells at 6x10^6 cells/well. After activation, the cells were cultured with antiretrovirals in the presence of individual drugs in DMSO or DMSO alone as control. After six days, total RNA was extracted and the progression through different stages of HIV transcription was (1 picture or pasted object on this page, not shown here)

[4] = 100nM, 24 h after αCD3/28 activation, each column one participant
[5] = 10/100nM, 24 h after αCD3/28 activation, each column one participant
[6] = 24 hours, compared with activated DMSO

Molecule: pladienolide B
- Viability (dose-response) ([1]; dose 0.1 nM): 74.768
- Viability (dose-response) ([1]; dose 1 nM): 75.444
- Viability (dose-response) ([1]; dose 10 nM): 68.259
- Cell viability (in words) ([1]; initial screening concentrations, Figure 1A): impact on cell viability
- Viability (Fig 1A) ([1]; study participant 150a): 75.5 % of activated DMSO
- Viability (Fig 1A) ([1]; study participant 152): 79.98 % of activated DMSO
- LLTR HIV transcripts (DMSO+αCD3/28 = 100) [2, 4]: 105.44 and 112.17
- Pol HIV transcripts (DMSO+αCD3/28 = 100) [2, 4]: 61.14 and 46.29
- TatRev HIV transcripts (DMSO+αCD3/28 = 100) [2, 4]: 0
- LLTR HIV transcripts (DMSO+αCD3/28 = 100) [2, 5]: 105.44 and 112.17 and 22.15 and 34.23 and 14.5 and 7.78 and 32.23
- Pol HIV transcripts (DMSO+αCD3/28 = 100) [2, 5]: 61.14 and 46.29 and 2.85 and 58.11 and 12.19 and 5.03 and 29.65
- PolyA HIV transcripts (DMSO+αCD3/28 = 100) [2, 5]: 25.19 and 8
- TAR HIV transcripts (DMSO+αCD3/28 = 100) [2, 5]: 70.83 and 56.32 and 43.76 and 138.46
- TatRev HIV transcripts (DMSO+αCD3/28 = 100) [2, 5]: 0 (4×) and 2.98 and 6.21 and 11.47
- HIV transcriptional completion, ratio PolyA/LLTR [2, 6]: reduced
- HIV multiple splicing, ratio TatRev/PolyA ([2]; 24 hours, compared with activated DMSO, Figure 3D): reduce HIV multiple splicing
- Reduction of multiply spliced or completed HIV transcripts in drug screen (selection as candidate LPA) ([2]; initial screening, 2 participants, 24 hours): more than 50%
- Completed (PolyA) HIV transcripts, median relative to activated DMSO, initial screening ([2]; initial screening, 2 participants, 24 hours, Supplemental Figure 2): 17%
- Pol HIV transcripts (DMSO αCD3/28 = 100) ([2]; participant 2027): 56.14
- PolyA HIV transcripts (DMSO αCD3/28 = 100) ([2]; participant 2027): 45.13
- TatRev HIV transcripts (DMSO αCD3/28 = 100) ([2]; participant 2027): 0
- Pol HIV transcripts (DMSO αCD3/28 = 100) ([2]; participant 2147a): 74.51
- PolyA HIV transcripts (DMSO αCD3/28 = 100) ([2]; participant 2147a): 38.34
- TatRev HIV transcripts (DMSO αCD3/28 = 100) ([2]; participant 2147a): 22.95
- Pol HIV transcripts (DMSO αCD3/28 = 100) ([2]; participant 2161): 44.19
- PolyA HIV transcripts (DMSO αCD3/28 = 100) ([2]; participant 2161): 152.38
- TatRev HIV transcripts (DMSO αCD3/28 = 100) ([2]; participant 2161): 381.82
- PolyA HIV transcripts (DMSO αCD3/28 = 100) ([2]; participant 2461): 53.85
- Pol HIV transcripts (DMSO αCD3/28 = 100) ([2]; participant 2747): 21.03
- PolyA HIV transcripts (DMSO αCD3/28 = 100) ([2]; participant 2747): 65.33
- TatRev HIV transcripts (DMSO αCD3/28 = 100) ([2]; participant 2747): 0
- Pol HIV transcripts (DMSO αCD3/28 = 100) ([2]; participant 2750): 212.24
- PolyA HIV transcripts (DMSO αCD3/28 = 100) ([2]; participant 2750): 74.85
- TatRev HIV transcripts (DMSO αCD3/28 = 100) ([2]; participant 2750): 155
- Multiply spliced HIV transcripts (TatRev) (Fig 1B) ([2]; study participant 150a, 24 hours): 0 % of activated DMSO
- PolyA/LLTR ([2]; study participant 150a): 0.2389
- TatRev/PolyA ([2]; study participant 150a): 0
- PolyA ([2]; study participant 150a): 25.19
- TatRev ([2]; study participant 150a): 0
- Multiply spliced HIV transcripts (TatRev) (Fig 1B) ([2]; study participant 152, 24 hours): 0 % of activated DMSO
- PolyA/LLTR ([2]; study participant 152): 0.07129
- TatRev/PolyA ([2]; study participant 152): 0
- PolyA ([2]; study participant 152): 8
- TatRev ([2]; study participant 152): 0
- PolyA/LLTR ([2]; study participant 163): 0.2589
- TatRev/PolyA ([2]; study participant 163): 0
- PolyA ([2]; study participant 163): 5.73
- TatRev ([2]; study participant 163): 0
- LLTR/TAR ([2]; study participant 1379): 0.1778
- PolyA/LLTR ([2]; study participant 1379): 0.4115
- TatRev/PolyA ([2]; study participant 1379): 0
- PolyA ([2]; study participant 1379): 3.2
- TatRev ([2]; study participant 1379): 0
- LLTR/TAR ([2]; study participant 2147b): 0.4833
- PolyA/LLTR ([2]; study participant 2147b): 0.2849
- TatRev/PolyA ([2]; study participant 2147b): 0.3058
- PolyA ([2]; study participant 2147b): 9.75
- TatRev ([2]; study participant 2147b): 2.98
- LLTR/TAR ([2]; study participant 2256): 0.2575
- PolyA/LLTR ([2]; study participant 2256): 0.2751
- TatRev/PolyA ([2]; study participant 2256): 1.556
- PolyA ([2]; study participant 2256): 3.99
- TatRev ([2]; study participant 2256): 6.21
- LLTR/TAR ([2]; study participant 5557): 0.2328
- PolyA/LLTR ([2]; study participant 5557): 0.5006
- TatRev/PolyA ([2]; study participant 5557): 0.7112
- PolyA ([2]; study participant 5557): 16.13
- TatRev ([2]; study participant 5557): 11.47
- Cell viability (DMSO αCD3/28 = 100) ([3]; 10nM): 115.2 and 113.39 and 90.65 and 128.6 and 121.6 and 94.2 and 112.8

Molecule: CC(=O)N[C@@H]1CCC[C@H](C(=O)Nc2cc(-c3cnn4c3CC(C)(C)C4)c(Cl)cn2)C1 [AZD4573]
- Viability (dose-response) ([1]; dose 1 nM): 74.75
- Viability (dose-response) ([1]; dose 8 nM): 63.616
- Viability (dose-response) ([1]; dose 20 nM): 68.369
- Viability (Fig 1A) ([1]; study participant 150a): 106.07 % of activated DMSO
- Viability (Fig 1A) ([1]; study participant 152): 97.45 % of activated DMSO
- HIV transcriptional completion, ratio PolyA/LLTR [2, 6]: reduced
- Cell viability (DMSO αCD3/28 = 100) ([3]; 8nM): 123.6 and 120.68 and 105.88 and 140.1 and 117.5 and 116.7 and 104.1
